{
  "source": "patent US20200163885A1",
  "about": "“COMPOSITION FOR DELIVERING PHYSIOLOGICALLY ACTIVE INGREDIENTS INTO BLOOD VESSEL” (LEMONEX INC., priority 2017, published 2020)",
  "key": {"[1]": {"experiment": "Release of bioactive materials from loaded porous silica particles", "type": "physicochemical", "settings": "doxorubicin loaded on porous silica particles, SBF (pH 7.4), 37° C.", "description": "5 mg of porous silica particles loaded with doxorubicin ([…]) was dispersed in SBF (pH 7.4) (total volume: 1 ml), and then the solution was placed in a 1.5 ml tube and maintained in a dynamic condition of performing horizontal agitation at 20 rpm and 37° C. At each time point, the porous silica solution loaded with doxorubicin was settled using a centrifuge, and the absorbance (λa,b=480 nm) of the supernatant was measured to determine an amount of released doxorubicin.\n10 mg of porous silica particles loaded with doxorubicin (2 mg) were dispersed in SBF (pH 7.4) inside a dialysis membrane (total volume: 0.5 ml), and then the dialysis membrane was placed in a 1.5 ml SBF tube (pH 7.4) and maintained in static conditions at 37° C. At each time point, the porous silica solution loaded with doxorubicin was settled using a centrifuge, and the absorbance (λab=480 nm) of the supernatant was measured to determine an amount of released doxorubicin.\nThe solution was maintained in a dynamic condition of performing horizontal agitation at 200 rpm and 37° C.\n[…] of porous silica particles loaded with sorafenib (0.1 Mg) were dispersed in 10 ml of 1×PBS. The solution was maintained under a dynamic condition of performing horizontal agitation at 200 rpm and 37° C. At each time point, the porous silica solution loaded with sorafenib was settled using a centrifuge, and the absorbance (λab=270 nm) of the supernatant was measured to determine an amount of released sorafenib.\n0.1 mg of particles loaded with retinoic acid were placed in a PBS (pH 7.4) solution containing 5% ethanol and maintained at 37° C. while performing horizontal agitation.\n5 mg of particles loaded with p53 peptide were placed in 5 ml of 1×PBS containing 10% FBS or 5 ml of 1×PBS, and maintained under a dynamic environment while rotating at 20 rpm and 37° C. At each time point, centrifugation was conducted at 8500 rpm and a fluorescence intensity of 5(6)-carboxyfluorescein (FAM), which is a fluorescent label bound to p53 peptide from the supernatant ([…]: 480 nm, Emission: 520 nm).\n10 μl of porous silica particles loaded with Cy5-siRNA was resuspended in SBF (pH 7.4, 37° C.) (total volume: 0.5 ml) and placed in a 1.5 ml tube. Release of siRNA was performed while horizontally agitating at 60 rpm and 37° C. At each time point, the siRNA-loaded porous silica solution was settled using a centrifuge, and a fluorescence intensity of the supernatant was measured.\n20 μg of porous silica particles loaded with siRNA (1 μg) of the above 1) was dispersed in SBF (pH 7.4) inside a dialysis membrane (total volume: 0.5 ml), and the dialysis membrane was placed in a 1.5 ml SBF (pH 7.4) tube, and static conditions at 37° C. were maintained. At each time point, the siRNA-loaded porous silica solution was settled using a centrifuge, and the absorbance (λab=480 nm) of the supernatant was measured to determine an amount of released siRNA.\n20 μg of porous silica particles loaded with pDNA (1 μg) were dispersed in SBF (pH 7.4) inside a dialysis membrane (total volume 0.5 ml), and the dialysis membrane was placed in a 1.5 ml SBF (pH 7.4) tube while shaking at 60 rpm and 37° C. At each time point, the porous silica solution loaded with pDNA was settled using a centrifuge and the absorbance (λab=480 nm) of the supernatant was measured to determine an amount of released pDNA.\nPorous silica particles loaded with linear DNA (3 μg of linear DNA, 100 μg of porous silica particles) were resuspended in PBS (pH 7.4, 37° C.), and a dialysis membrane having a pore diameter of 20 kDa (the same tube as the tube in FIG. 18). After placing the suspension in the membrane, a dialysis tube was soaked in 1.5 ml of PBS."}, "HepG2 cells": {"system": "HepG2 cells", "experiment": "Delivery through intravenous injection, HepG2 Xeno", "type": "in vivo, Balb/C nude mouse", "settings": "loaded on particles of Example 2-(3)-4)-(i), tail vein, 4 mg/kg", "description": "Xeno was prepared in Balb/C nude mouse using HepG2 cells as a human liver cancer cell line. […] An injecting dose of doxorubicin was 4 mg/kg (mouse weight), and 80 μg of doxorubicin and 160 μg of particles were used based on an average body weight of 20 g of 5 to 8-week old Balb/C nude mouse."}, "[2]": {"experiment": "Bioactive material loading capacity of porous silica particles", "type": "physicochemical", "settings": "particles of Example 2-(3)-4)-(i), distilled water, 1 hour", "description": "After loading the negatively charged porous silica particles of Example 2-(3)-4)-(i) with doxorubicin, the absorbance of the supernatant was measured to determine an amount of loaded doxorubicin, and a loading rate (“loading capacity”) of the particles was calculated.\nSpecifically, 5 mg of porous silica particle powders and 2 mg of doxorubicin were mixed in 1 ml of distilled water, and then settled at room temperature for 1 hour. Subsequently, the solution was centrifuged at 8000 rpm for 10 minutes to settle the particles, and absorbance (λab=480 nm) of the supernatant was measured to determine an amount of the low molecular weight compound remaining in the supernatant without loading. Further, an amount of the loaded low molecular weight compound was calculated (an amount of the loaded low molecular weight compound=an amount of initially added low molecular weight compound−an amount of the low molecular weight compound remaining in the supernatant) so as to determine the loading capacity (loading capacity=bioactive material/porous silica particles, w/w %)\nAfter loading the negatively charged porous silica particles in Example 2-(3)-4)-(i) with irinotecan, absorbance of the supernatant was measured and an amount of loaded irinotecan was calculated, and the loading capacity thereof was determined. […]"}, "[3]": {"settings": "static condition, dialysis membrane"}},
  "data": [
    {"smiles": "COc1cccc2c1C(=O)c1c(O)c3c(c(O)c1C2=O)C[C@@](O)(C(=O)CO)C[C@@H]3O[C@H]1C[C@H](N)[C@H](O)[C@H](C)O1", "note": "[doxorubicin]", "values": [
      {"measurement": "time to reach a release rate of 50%", "setting": "[1]; dynamic condition, 20 rpm", "result": "about 1.5 hours"},
      {"measurement": "time up to which continuously released", "setting": "[1]; dynamic condition, 20 rpm", "result": "≥ 12", "unit": "h"},
      {"measurement": "time to reach a release rate of 50%", "setting": "[1]; [3]", "result": "about 6 days"},
      {"measurement": "time up to which continuously released", "setting": "[1]; [3]", "result": "≥ 480", "unit": "h"},
      {"measurement": "tumor growth inhibition compared to injection of the material alone", "setting": "HepG2 cells", "result": "excellent"},
      {"measurement": "loading of doxorubicin on the particles (colour of solution after centrifugation)", "setting": "[2]", "result": "mostly loaded on the particles"}
    ]}
  ]
}
